What all share (assay): NCI tumour cell line growth inhibition, 48 h
In assay [1] the test system is A498 renal.
Assay [2] relates to OVCAR-8 ovarian.
Assay [3] concerns NCI-H460 lung.
The subject of assay [4] is DU-145 prostate.
The test system of assay [5] is MCF7 breast.
Assay [6] deals with K-562 leukemia.
Assay [7] deals with RXF 393 renal.
The test system of assay [8] is SNB-75 CNS.
For assay [9], the system named is U251 CNS.
Assay [10] deals with HT29 colon.

Among the data in PubChem BioAssay (NCI) are GI50 and TGI values, retold here.

Each structure is given as a SMILES string.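 These data come from cells grown in 96-well plates and exposed to compound for 48 hours at five concentrations. The concentration for 50% growth inhibition is given as GI50. TGI marks complete inhibition of growth.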

With `O=C(CCCCCCN1CC(=O)N2[C@@H](c3ccc(Cl)c(Cl)c3)c3[nH]c4ccccc4c3C[C@H]2C1=O)NO`, the GI50 in [1] is 5.28 µM; in [2], 2.82 µM; in [3], 2.77 µM; in [4], 4.01 µM; in assay [5] it was 1.87 µM; in assay [6], 1.54 µM. Moreover, the GI50 in [7] is 1.73 µM; in [8] it was 0.832 µM; in assay [9] it was 2.78 µM; in assay [10], 2.93 µM. Besides, the TGI in assay [1] was 9.92 µM; in assay [2] it was 17.9 µM; in [3] it was 9.15 µM; in assay [4] it was 15.3 µM; in assay [5], 15 µM; in assay [6], 21.4 µM. Besides, the TGI stood at 6.04 µM in assay [7], 7 µM in assay [8], 8.25 µM in [9] and 9 µM in [10].
For `COc1cc(/C=C/C(=O)c2cccc(-n3cc(-c4ccc(Cl)cc4)[nH]c3=O)c2)cc(OC)c1OC`, the GI50 in assay [1] was 30.2 µM; in assay [2], 3.85 µM; in assay [3] it was 3.74 µM; in assay [4], 4.53 µM; in assay [5], 1.74 µM; in [6] it was 3.69 µM. Also, the GI50 in assay [7] is 3.22 µM; in [8] it was 20.5 µM; in [9], 2.12 µM; in assay [10], 2 µM. The TGI in assay [1] is over 100 µM; in assay [2], over 100 µM; in [3] it was 11.8 µM; in assay [4], 27 µM; in [5], 5.75 µM; in assay [6], over 100 µM. For the same compound, the TGI in [7] is 7.7 µM; in assay [8], over 100 µM; in assay [9] it was 4.62 µM; in assay [10], 3.71 µM.
With `CSc1nc2sc3c(c2c(=O)n1-c1ccc(C(C)C)cc1)CCC(=O)C3`, the GI50 was 20.4 µM in assay [1]; 2.12 µM in [2]; 2.27 µM in assay [3]; 3.75 µM in [4]; 3.14 µM in assay [5]; 3.02 µM in assay [6]. For the same compound, the GI50 was 2.21 µM in [7], 2.22 µM in [8], 1.7 µM in [9] and 2.97 µM in assay [10]. The TGI is 82.7 µM in assay [1]; 4.49 µM in [2]; 5.1 µM in assay [3]; over 100 µM in [4]; 10.6 µM in assay [5]; 9.04 µM in [6]. The TGI in assay [7] came to 5.37 µM; in [8], 5.21 µM; in [9], 3.07 µM; in assay [10], 6.7 µM.
For `COc1cc2nc(-c3cc(F)ccc3O)nc(N[C@@H]3CNC[C@H]3C(C)(C)O)c2cc1OC`, the GI50 in [1] is 1.12 µM; in assay [2] it was 1.63 µM; in assay [3], 1.83 µM; in [4], 1.51 µM; in assay [5], 1.51 µM; in assay [6], 1.6 µM. Also, the GI50 is 1.27 µM in assay [7], 0.42 µM in assay [8], 1.62 µM in assay [9] and 2 µM in [10]. Moreover, the TGI turned out to be 2.6 µM in assay [1]; 3.07 µM in assay [2]; 3.47 µM in assay [3]; 2.96 µM in assay [4]; 3.07 µM in [5]; 3.94 µM in assay [6]. The TGI in assay [7] was determined as 2.55 µM; in [8] it was 2.71 µM; in assay [9] it was 3.06 µM; in assay [10], 3.85 µM.
Take `c1ccc2c(c1)Nc1ccncc1S2`: the GI50 in assay [1] is 5.13 µM; in [2], 21.6 µM; in assay [3], 18.2 µM; in assay [4], 32.3 µM; in [5] it was 28.7 µM; in [6], 29.4 µM. Further, the GI50 is 11.9 µM in assay [7], 18.1 µM in [8], 27.2 µM in [9] and 18.4 µM in [10]. Also, the TGI is 24.4 µM in [1]; over 100 µM in assay [2]; 49.7 µM in [3]; over 100 µM in assay [4]; over 100 µM in assay [5]; over 100 µM in [6]. The TGI in assay [7] is 32 µM; in assay [8] it was 56.6 µM; in assay [9], over 100 µM; in assay [10], over 100 µM.
